Counter-ions that a name gives are not always drawn. A value given as a limit tells only on which side of the number the result lay.

In the experiment the test system is peripheral blood mononuclear cells (PBMCs) from healthy donors. The experiment in a line: IFN production by R848-activated PBMCs, quantified with twINNE luciferase reporter cell line. It counts as cell-based, human. The following applies: Homo sapiens, PBMC; read-out: IC50 of anti-inflammatory activity (IFN production by activated PBMCs). The procedure, abridged: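 Functional IFN was quantified by luciferase output from the twINNE ISRE-reporter line after 24 h on conditioned supernatants. Those supernatants came from human PBMCs (4.10^6/mL) pre-treated with compound and then stimulated for 24 h with 5 μg/mL resiquimod. IC50s were fitted by nonlinear variable-slope regression.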
A general note: In a reporter assay the amount or activity of a reporter protein is the signal.
As to `C1=C(CSC2=NCc3ccccc3N2)N2CC(Cc3cccs3)N=C2S1` (centres unmarked) [Example 63, 3-(((3,4-dihydroquinazolin-2-yl)thio)methyl)-6-(thiophen-2-ylmethyl)-5,6-dihydroimidazo[2,1-b]thiazole dihydrochloride], the IC50 (usually the midpoint of a concentration-inhibition curve) was no more than 10 µM.

On to `Clc1ccc2c(c1)CN1C(CSC3=NCC(Cc4cccs4)N3)=CSC1=N2` (centres unmarked) [Example 64, 7-chloro-3-(((5-(thiophen-2-ylmethyl)-4,5-dihydro-1H-imidazol-2-yl)thio)methyl)-5H-thiazolo[2,3-b]quinazoline dihydrochloride], for which the IC50 was no more than 10 µM.

Take `Clc1ccc2c(c1)CN1C(CSC3=NCc4ccc(Br)cc4N3)=CSC1=N2` [Example 66, 3-(((7-bromo-1,4-dihydroquinazolin-2-yl)thio)methyl)-7-chloro-5H-thiazolo[2,3-b]quinazoline dihydrochloride]: the half-maximal inhibitory concentration (IC50) was no more than 10 µM.

As to `Clc1ccc2c(c1)CN1C(CSC3=NCc4cc(Br)ccc4N3)=CSC1=N2` [Example 67, 3-(((6-bromo-1,4-dihydroquinazolin-2-yl)thio)methyl)-7-chloro-5H-thiazolo[2,3-b]quinazoline dihydrochloride], the half-inhibitory concentration (IC50) was 10 to 32 µM.

Turning to `Clc1ccc2c(c1)CN1C(CSC3=NCC4(CC4)N3)=CSC1=N2` [Example 68, 3-(((4,6-diazaspiro[2.4]hept-5-en-5-yl)thio)methyl)-7-chloro-5H-thiazolo[2,3-b]quinazoline dihydrochloride], the concentration for half-maximal inhibition (IC50) was no more than 10 µM.

Take `Brc1ccc2c(c1)CN1C(CSC3=NCc4ccccc4N3)=CSC1=N2` [Example 69, 7-bromo-3-(((1,4-dihydroquinazolin-2-yl)thio)methyl)-5H-thiazolo[2,3-b]quinazoline dihydrochloride]: the half-maximal inhibitory concentration (IC50) is no more than 10 µM.

As for `Brc1ccc2c(c1)N=C1SC=C(CSC3=NCc4ccccc4N3)N1C2` [Example 70, 8-bromo-3-(((1,4-dihydroquinazolin-2-yl)thio)methyl)-5H-thiazolo[2,3-b]quinazoline dihydrochloride], the half-maximal inhibitory concentration (IC50) is no more than 10 µM.

Turning to `c1ccc2c(c1)CN(CCSC1=NCc3ccccc3N1)C2` [Example 71, 2-((2-(isoindolin-2-yl)ethyl)thio)-3,4-dihydroquinazoline dihydrochloride], the IC50 was in the range of 10 to 32 µM.

As to `CC1(c2ccccc2)CN=C(SCC2=CSC3=Nc4ccc(Cl)cc4CN23)N1` (centres unmarked) [Example 72, 7-chloro-3-(((5-methyl-5-phenyl-4,5-dihydro-1H-imidazol-2-yl)thio)methyl)-5H-thiazolo[2,3-b]quinazoline dihydrochloride], the 50% inhibitory concentration (IC50) is no more than 10 µM.

As to `CC1(C)N=C(SCC2=CSC3=Nc4cccc(F)c4CN23)Nc2ccccc21` [Example 73, 3-(((4,4-dimethyl-1,4-dihydroquinazolin-2-yl)thio)methyl)-6-fluoro-5H-thiazolo[2,3-b]quinazoline dihydrochloride], the IC50 was greater than 32 µM.

With `Clc1ccc2c(ccn2CCSC2=NCc3ccccc3N2)c1` [Example 74, 2-((2-(5-chloro-1H-indol-1-yl)ethyl)thio)-3,4-dihydroquinazoline hydrochloride], the IC50 was greater than 32 µM.

For `CC1(C)N=C(SCC2=CSC3=Nc4ccc(Cl)cc4CN23)Nc2ccccc21` [Example 75, 7-chloro-3-(((4,4-dimethyl-1,4-dihydroquinazolin-2-yl)thio)methyl)-5H-thiazolo[2,3-b]quinazoline dihydrochloride], the 50% inhibitory concentration (IC50) was greater than 32 µM.

With `Clc1ccc2c(c1)CN1C(CSC3=NCCc4ccccc4N3)=CSC1=N2` [Example 76, 7-chloro-3-(((4,5-dihydro-1H-benzo[d][1,3]diazepin-2-yl)thio)methyl)-5H-thiazolo[2,3-b]quinazoline dihydrochloride], the IC50 lay in the range of 10 to 32 µM.

`CC1(C)N=C(SCCN2CCCC2)Nc2ccccc21` [Example 78, 4,4-dimethyl-2-((2-(pyrrolidin-1-yl)ethyl)thio)-1,4-dihydroquinazoline dihydrochloride]: the half-maximal inhibitory concentration (IC50) was greater than 32 µM.

In the case of `Clc1ccc2c(c1)CN1C(=N2)SC(Br)=C1CSC1=NCc2ccccc2N1` [Example 79, 2-bromo-7-chloro-3-(((1,4-dihydroquinazolin-2-yl)thio)methyl)-5H-thiazolo[2,3-b]quinazoline dihydrochloride], the IC50 was no more than 10 µM.

For the molecule `Fc1cccc2c1CN=C(SCC1=CSC3=Nc4ccc(Cl)cc4CN13)N2` [Example 80, 7-chloro-3-(((5-fluoro-1,4-dihydroquinazolin-2-yl)thio)methyl)-5H-thiazolo[2,3-b]quinazoline dihydrochloride], the IC50 is no more than 10 µM.

For `Clc1cccc2c1CN1C(CSC3=NCc4ccccc4N3)=CSC1=N2` [Example 81, 6-chloro-3-(((1,4-dihydroquinazolin-2-yl)thio)methyl)-5H-thiazolo[2,3-b]quinazoline dihydrochloride], the half-inhibitory concentration (IC50) was no more than 10 µM.

As to `Fc1ccc2c(c1)N=C1SC=C(CSC3=NCc4ccccc4N3)N1C2` [Example 82, 3-(((1,4-dihydroquinazolin-2-yl)thio)methyl)-8-fluoro-5H-thiazolo[2,3-b]quinazoline dihydrochloride], the 50% inhibitory concentration (IC50) is no more than 10 µM.

In the case of `Fc1ccc2c(c1)CN=C(SCC1=CSC3=Nc4ccc(Cl)cc4CN13)N2` [Example 83, 7-chloro-3-(((6-fluoro-1,4-dihydroquinazolin-2-yl)thio)methyl)-5H-thiazolo[2,3-b]quinazoline dihydrochloride], the concentration for half-maximal inhibition (IC50) is no more than 10 µM.

As to `Fc1ccc2c(c1)CN1C(CSC3=NCc4ccccc4N3)=CSC1=N2` [Example 84, 3-(((1,4-dihydroquinazolin-2-yl)thio)methyl)-7-fluoro-5H-thiazolo[2,3-b]quinazoline dihydrochloride], the IC50 was no more than 10 µM.

For `Brc1cccc2c1N=C1SC=C(CSC3=NCc4ccccc4N3)N1C2` [Example 85, 9-bromo-3-(((1,4-dihydroquinazolin-2-yl)thio)methyl)-5H-thiazolo[2,3-b]quinazoline dihydrochloride], the IC50 was no more than 10 µM.

In the case of `Fc1cc(Cl)cc2c1N=C1SC=C(CSC3=NCc4ccccc4N3)N1C2` [Example 86, 7-chloro-3-(((1,4-dihydroquinazolin-2-yl)thio)methyl)-9-fluoro-5H-thiazolo[2,3-b]quinazoline dihydrochloride], the 50% inhibitory concentration (IC50) is no more than 10 µM.

In the case of `CC1(C)N=C(SCC2=CSC3=NC(Cc4ccccc4)CN23)Nc2ccccc21` (centres unmarked) [Example 87, 6-benzyl-3-(((4,4-dimethyl-1,4-dihydroquinazolin-2-yl)thio)methyl)-5,6-dihydroimidazo[2,1-b]thiazole dihydrochloride], the 50% inhibitory concentration (IC50) is no more than 10 µM.

With `C1=C(CSC2=NCCc3ccccc3N2)N2CC(Cc3ccccc3)N=C2S1` (centres unmarked) [Example 88, 6-benzyl-3-(((4,5-dihydro-1H-benzo[d][1,3]diazepin-2-yl)thio)methyl)-5,6-dihydroimidazo[2,1-b]thiazole dihydrochloride], the IC50 was no more than 10 µM.

On to `Fc1ccc2c(c1)NC(SCC1=CSC3=NC(Cc4ccccc4)CN13)=NC2` (centres unmarked) [Example 89, 6-benzyl-3-(((7-fluoro-1,4-dihydroquinazolin-2-yl)thio)methyl)-5,6-dihydroimidazo[2,1-b]thiazole dihydrochloride], for which the IC50 was no more than 10 µM.

On to `c1ccc2c(c1)CN=C(SCCN1CCCCCC1)N2` [Example 90, 2-((2-(azepan-1-yl)ethyl)thio)-1,4-dihydroquinazoline dihydrochloride], for which the 50% inhibitory concentration (IC50) is no more than 10 µM.

The record behind these values is US20240018125A1, “CYCLIC ISOTHIOUREA DERIVATIVES AS CXCR4 MODULATORS” (ERMIUM THERAPEUTICS, priority 2020, published 2024).
